Results: patent publication US9840474B2, “Pyrimidine compounds and use as anti-cervical cancer thereof” (SICHUAN UNIVERSITY, priority 2014, dated 2017)
Where two headings read alike, the source gives them in different places.

Experiments:
Format in all cases: cell-based
[1] = test system: HPV16 E6 mRNA; experiment: Real-time PCR of HPV16 E6 mRNA expression in Caski cells; conditions: for inhibition at 0.2 µg/mL: Human papillomavirus 16, Ca-Ski; for inhibition at 0.2 µg/mL / E6 One independent tests (inhibitory rate) / E6 Two independent tests (inhibitory rate): 48 h; for effect on HPV E6 mRNA in Caski cells / inhibitory activity on E6 compared with positive control cidofovir / E6 One independent tests (inhibitory rate) / E6 Two independent tests (inhibitory rate): Caski cells; for E6 One independent tests (inhibitory rate): test one; for E6 Two independent tests (inhibitory rate): test two
From the text: (§1) In order to investigate in vitro effects of CH01 and CH02 against cervical cancer and HPV16 viruses, in the experiment, the cytotoxicity of above compounds, together with their effects on HPV16 E6 and E7 mRNA, is investigated by culture with human cervical cancer cells (HPV16 positive). Structures of test compounds are shown as follows:
(§2) [Experimental Method] • 1. Cytotoxicity: MTT method was used, and Reed-Muench method was used to calculate indexes median toxic concentration (TC50) and maximum non-toxic concentation (TC0). • 2. HPV16 E6 and E7 mRNA: The cell culture was treated for 48 h at maximum non-toxic concentration, and then the culture was terminated. Total RNA in cells was extracted, and effects of test samples on HPV16 E6 and E7 mRNA were measured using Real-time PCR method.
(§3) Effects of Samples on Expression of HPV16 E6 mRNA and HPV16 E7 mRNA in Caski Cells

[2] = test system: HPV16 E7 mRNA; experiment: Real-time PCR of HPV16 E7 mRNA expression in Caski cells; conditions: for inhibition at 0.2 µg/mL: Human papillomavirus 16, Ca-Ski; for inhibition at 0.2 µg/mL / E7 One independent tests (inhibitory rate) / E7 Two independent tests (inhibitory rate): 48 h; for effect on HPV E7 mRNA in Caski cells / inhibitory activity on E7 compared with positive control cidofovir / E7 One independent tests (inhibitory rate) / E7 Two independent tests (inhibitory rate): Caski cells; for E7 One independent tests (inhibitory rate): test one; for E7 Two independent tests (inhibitory rate): test two
From the text: as §1, §2, §3

[3] = test system: human cervical carcinoma Caski cells; experiment: MTT cytotoxicity / inhibition test of cervical cancer Caski cells; conditions: for OD: Caski cells, MTT; for IC50 value: cervical cancer Caski cells
From the text: as §1, §2
[Experimental Result] • 1. Inhibition Test of Cervical Cancer Caski Cells

`Nc1ccn(C[C@@H](CO)OCP(=O)(O)O)c(=O)n1` [cidofovir, reference compound] showed an inhibition at 0.2 µg/mL ([1]; read-out: E6 One independent tests (inhibitory rate)) of 32.6%, an inhibition at 0.2 µg/mL ([1]; read-out: E6 Two independent tests (inhibitory rate)) of 33.6% and an inhibition at 0.2 µg/mL ([2]; read-out: E7 One independent tests (inhibitory rate)) of 32.1%. It also gave an inhibition at 0.2 µg/mL ([2]; read-out: E7 Two independent tests (inhibitory rate)) of 32.4%.
Compound “4-(2-methoxybenzylamino)-5-formaldoxime-6-chloropyrimidine [CH02]” has an OD ([3]; 0.097656 μg/ml) of 0.8357, an OD ([3]; 0.195313 μg/ml) of 0.78 and an OD ([3]; 0.390625 μg/ml) of 0.4733. The OD ([3]; 0.78125 μg/ml) was 0.3837, the OD ([3]; 1.5625 μg/ml) was 0.313 and the OD ([3]; 3.125 μg/ml) was 0.2943. For the same compound, the OD ([3]; 6.25 μg/ml) was 0.2727, the OD ([3]; 12.5 μg/ml) was 0.2743 and the OD ([3]; 25 μg/ml) was 0.2803. It also gave an OD ([3]; 50 μg/ml) of 0.3087, an OD ([3]; 100 μg/ml) of 0.3757 and an OD ([3]; 200 μg/ml) of 0.5557. The IC50 value [3] was “about 0.4 μg/ml”, the “effect on HPV E6 mRNA in Caski cells” value [1] was “showed inhibitory effects” and the “inhibitory activity on E6 compared with positive control cidofovir” value [1] was “better inhibitory activity than the positive control cidofovir”. The “E6 One independent tests (inhibitory rate)” value ([1]; 0.067 μg/ml) was 0.461, the “E6 Two independent tests (inhibitory rate)” value ([1]; 0.067 μg/ml) was 0.481 and the “E6 One independent tests (inhibitory rate)” value ([1]; 0.2 μg/ml) was 0.599. For the same compound, the “E6 Two independent tests (inhibitory rate)” value ([1]; 0.2 μg/ml) was 0.549, the “effect on HPV E7 mRNA in Caski cells” value [2] was “showed inhibitory effects” and the “inhibitory activity on E7 compared with positive control cidofovir” value [2] was “better inhibitory activity than the positive control cidofovir”. The “E7 One independent tests (inhibitory rate)” value ([2]; 0.067 μg/ml) was 0.484, the “E7 Two independent tests (inhibitory rate)” value ([2]; 0.067 μg/ml) was 0.488 and the “E7 One independent tests (inhibitory rate)” value ([2]; 0.2 μg/ml) was 0.516. For the same compound, the “E7 Two independent tests (inhibitory rate)” value ([2]; 0.2 μg/ml) was 0.526.
“4-(4-tert-butylbenzylamino)-5-formaldoxime-6-chloropyrimidine [CH01]” gave an OD ([3]; 0.097656 μg/ml) of 0.8367, an OD ([3]; 0.195313 μg/ml) of 0.7847 and an OD ([3]; 0.390625 μg/ml) of 0.6353. For the same compound, the OD ([3]; 0.78125 μg/ml) was 0.5667, the OD ([3]; 1.5625 μg/ml) was 0.488 and the OD ([3]; 3.125 μg/ml) was 0.4667. For the same compound, the OD ([3]; 6.25 μg/ml) was 0.4117, the OD ([3]; 12.5 μg/ml) was 0.3033 and the OD ([3]; 25 μg/ml) was 0.283. For the same compound, the OD ([3]; 50 μg/ml) was 0.28, the OD ([3]; 100 μg/ml) was 0.2967 and the OD ([3]; 200 μg/ml) was 0.4373. The IC50 value [3] was “about 1.5 μg/ml”, the “effect on HPV E6 mRNA in Caski cells” value [1] was “showed inhibitory effects” and the “inhibitory activity on E6 compared with positive control cidofovir” value [1] was “better inhibitory activity than the positive control cidofovir”. For the same compound, the “E6 One independent tests (inhibitory rate)” value ([1]; 0.067 μg/ml) was 0.489, the “E6 Two independent tests (inhibitory rate)” value ([1]; 0.067 μg/ml) was 0.494 and the “E6 One independent tests (inhibitory rate)” value ([1]; 0.2 μg/ml) was 0.577. For the same compound, the “E6 Two independent tests (inhibitory rate)” value ([1]; 0.2 μg/ml) was 0.553, the “effect on HPV E7 mRNA in Caski cells” value [2] was “showed inhibitory effects” and the “inhibitory activity on E7 compared with positive control cidofovir” value [2] was “better inhibitory activity than the positive control cidofovir”. For the same compound, the “E7 One independent tests (inhibitory rate)” value ([2]; 0.067 μg/ml) was 0.488, the “E7 Two independent tests (inhibitory rate)” value ([2]; 0.067 μg/ml) was 0.455 and the “E7 One independent tests (inhibitory rate)” value ([2]; 0.2 μg/ml) was 0.484. For the same compound, the “E7 Two independent tests (inhibitory rate)” value ([2]; 0.2 μg/ml) was 0.449.
